Where a SMILES comes first, the peptide text is derived from it.
Legend:
L. plantarum 8014 = format: cell-based; conditions: 24 h
Method: (§1) The antibacterial activity of the peptides was measured using a method adopted from the Clinical Laboratory Standards Institute (CLSI), with modifications. 50 μL bacterial cells solution with 1000-fold of OD600 = 0.4 was mixed with 50 μL of each peptide of various concentration ranged from 2 to 64 μM dissolved in BSA (0.2% with 0.01% acetic acid) and incubated in sterile 96-well plates at 37°C for 24 h. The MICs were calculated as the lowest concentration of peptide with no microbial growth being observed. Broth with microbial cells and uninoculated broth were used as positive control and negative control, respectively. The tests were performed at least three times.

MRSA* 43300 = format: cell-based, methicillin-resistant Staphylococcus aureus; conditions: * 43300, 24 h
Method: as §1

S. aureus 29213 = format: cell-based, Staphylococcus aureus; conditions: 29213, 24 h
Method: as §1

L. rhamnosus 7469 = format: cell-based, Lactobacillus rhamnosus; conditions: 24 h
Method: as §1

L. rhamnosus 1.0911 = format: cell-based, Lactobacillus rhamnosus; conditions: 24 h
Method: as §1

L. rhamnosus 1.0385 = format: cell-based, Lactobacillus rhamnosus; conditions: 24 h
Method: as §1

L. rhamnosus 1.9025 = format: cell-based, Lactobacillus rhamnosus; conditions: 24 h
Method: as §1

L. rhamnosus 1.0386 = format: cell-based, Lactobacillus rhamnosus; conditions: 24 h
Method: as §1

E. coli 25922 = format: cell-based, Escherichia coli; conditions: 25922, 24 h
Method: as §1

S. epidermidis 12228 = format: cell-based, Staphylococcus epidermidis; conditions: 12228, 24 h
Method: as §1

P. aeruginosa 27853 = format: cell-based, Pseudomonas aeruginosa; conditions: 27853, 24 h
Method: as §1

E. coli UB 1005 = experiment: MIC measurement (modified CLSI broth microdilution); format: cell-based, Escherichia coli; conditions: peptide 2-64 μM in 0.2% BSA with 0.01% acetic acid, 37°C, 24 h, at least three times
Method: as §1

Lactobacillus = format: cell-based; conditions: probiotic strains of Table 2
Method: as §1

pathogens = experiment: Geometric mean of MICs against pathogens; format: cell-based; conditions: six pathogenic strains of Table 2
Method: as §1

E. coli ATCC 25922 = experiment: Drug resistance experiment (sequential passaging); format: cell-based, Escherichia coli; conditions: E. coli 25922, passaged at sub-MIC for 30 days
Method: Resistance development of E. coli ATCC 25922 against antibiotics was investigated using a sequential passaging method. Briefly, in the first generation, the MIC value was determined as described previously. After a 24 h incubation, bacterial cells growing in a well with a half-MIC level were harvested and diluted to 0.05 at OD600, followed by a 1:10 dilution in fresh MHB. The inoculum was subjected to subsequent passage MIC testing, and the process was repeated for 30 days. The fold change in MIC was plotted against the number of passages.

SMILES	MIC L. plantarum 8014 (L. plantarum 8014)	MIC MRSA* 43300 (MRSA* 43300)	MIC S. aureus 29213 (S. aureus 29213)	MIC L. rhamnosus 7469 (L. rhamnosus 7469)	MIC L. rhamnosus 1.0911 (L. rhamnosus 1.0911)	MIC L. rhamnosus 1.0385 (L. rhamnosus 1.0385)	MIC L. rhamnosus 1.9025 (L. rhamnosus 1.9025)	MIC L. rhamnosus 1.0386 (L. rhamnosus 1.0386)	MIC E. coli 25922 (E. coli 25922)	MIC S. epidermidis 12228 (S. epidermidis 12228)	MIC P. aeruginosa 27853 (P. aeruginosa 27853)	MIC E. coli UB 1005 (E. coli UB 1005)	MIC against Lactobacillus (Lactobacillus)	geometric mean (GM) of MICs against pathogens (pathogens)	resistance development (change in MIC on serial passaging) (E. coli ATCC 25922)
N=C(N)NCCC[C@H](NC(=O)[C@H](CCCNC(=N)N)NC(=O)[C@H](Cc1c[nH]c2ccccc12)NC(=O)[C@H](CS)NC(=O)[C@H](Cc1c[nH]c2ccccc12)NC(=O)[C@H](Cc1c[nH]c2ccccc12)NC(=O)[C@H](Cc1c[nH]c2ccccc12)NC(=O)[C@H](CS)NC(=O)[C@H](Cc1c[nH]c2ccccc12)NC(=O)[C@H](CCCNC(=N)N)NC(=O)[C@@H](N)CCCNC(=N)N)C(N)=O [Peptide S1] (H-RRWCWWWCWRR-NH2; N-terminus assumed)	8 μ M	4 μ M	8 μ M	>64 μ M	>64 μ M	16 μ M	>64 μ M	>64 μ M	>64 μ M	8 μ M	8 μ M	16 μ M	–	–	–
N=C(N)NCCC[C@H](NC(=O)[C@H](CCCNC(=N)N)NC(=O)[C@H](Cc1c[nH]c2ccccc12)NC(=O)[C@H](Cc1ccc(O)cc1)NC(=O)[C@H](Cc1c[nH]c2ccccc12)NC(=O)[C@H](Cc1c[nH]c2ccccc12)NC(=O)[C@H](Cc1c[nH]c2ccccc12)NC(=O)[C@H](Cc1ccc(O)cc1)NC(=O)[C@H](Cc1c[nH]c2ccccc12)NC(=O)[C@H](CCCNC(=N)N)NC(=O)[C@@H](N)CCCNC(=N)N)C(N)=O [Peptide S2] (H-RRWYWWWYWRR-NH2)	4 μ M	8 μ M	8 μ M	>64 μ M	>64 μ M	16 μ M	>64 μ M	16 μ M	32 μ M	8 μ M	8 μ M	32 μ M	–	–	–
N=C(N)NCCC[C@H](NC(=O)[C@H](CCCNC(=N)N)NC(=O)[C@H](Cc1c[nH]c2ccccc12)NC(=O)[C@H](CC(N)=O)NC(=O)[C@H](Cc1c[nH]c2ccccc12)NC(=O)[C@H](Cc1c[nH]c2ccccc12)NC(=O)[C@H](Cc1c[nH]c2ccccc12)NC(=O)[C@H](CC(N)=O)NC(=O)[C@H](Cc1c[nH]c2ccccc12)NC(=O)[C@H](CCCNC(=N)N)NC(=O)[C@@H](N)CCCNC(=N)N)C(N)=O [Peptide S3] (H-RRWNWWWNWRR-NH2)	>64 μ M	>64 μ M	>64 μ M	>64 μ M	>64 μ M	>64 μ M	>64 μ M	>64 μ M	>64 μ M	>64 μ M	>64 μ M	>64 μ M	–	–	–
N=C(N)NCCC[C@H](NC(=O)[C@H](CCCNC(=N)N)NC(=O)[C@H](Cc1c[nH]c2ccccc12)NC(=O)[C@H](CCC(N)=O)NC(=O)[C@H](Cc1c[nH]c2ccccc12)NC(=O)[C@H](Cc1c[nH]c2ccccc12)NC(=O)[C@H](Cc1c[nH]c2ccccc12)NC(=O)[C@H](CCC(N)=O)NC(=O)[C@H](Cc1c[nH]c2ccccc12)NC(=O)[C@H](CCCNC(=N)N)NC(=O)[C@@H](N)CCCNC(=N)N)C(N)=O [Peptide S4] (H-RRWQWWWQWRR-NH2)	8 μ M	4 μ M	4 μ M	>64 μ M	>64 μ M	16 μ M	>64 μ M	64 μ M	4 μ M	4 μ M	4 μ M	4 μ M	–	–	–
C[C@@H](O)[C@H](NC(=O)[C@H](Cc1c[nH]c2ccccc12)NC(=O)[C@H](Cc1c[nH]c2ccccc12)NC(=O)[C@H](Cc1c[nH]c2ccccc12)NC(=O)[C@@H](NC(=O)[C@H](Cc1c[nH]c2ccccc12)NC(=O)[C@H](CCCNC(=N)N)NC(=O)[C@@H](N)CCCNC(=N)N)[C@@H](C)O)C(=O)N[C@@H](Cc1c[nH]c2ccccc12)C(=O)N[C@@H](CCCNC(=N)N)C(=O)N[C@@H](CCCNC(=N)N)C(N)=O [Peptide S5] (H-RRWTWWWTWRR-NH2)	>64 μ M	4 μ M	1 μ M	>64 μ M	>64 μ M	>64 μ M	>64 μ M	>64 μ M	2 μ M	2 μ M	4 μ M	2 μ M	more than 64 μM	2.24 µM	–
N=C(N)NCCC[C@H](NC(=O)[C@H](CCCNC(=N)N)NC(=O)[C@H](Cc1c[nH]c2ccccc12)NC(=O)CNC(=O)[C@H](Cc1c[nH]c2ccccc12)NC(=O)[C@H](Cc1c[nH]c2ccccc12)NC(=O)[C@H](Cc1c[nH]c2ccccc12)NC(=O)CNC(=O)[C@H](Cc1c[nH]c2ccccc12)NC(=O)[C@H](CCCNC(=N)N)NC(=O)[C@@H](N)CCCNC(=N)N)C(N)=O [Peptide S6] (H-RRWGWWWGWRR-NH2)	>64 μ M	16 μ M	16 μ M	>64 μ M	>64 μ M	>64 μ M	>64 μ M	>64 μ M	4 μ M	>64 μ M	8 μ M	2 μ M	–	–	–
N=C(N)NCCC[C@H](NC(=O)[C@H](CCCNC(=N)N)NC(=O)[C@H](Cc1c[nH]c2ccccc12)NC(=O)[C@H](CO)NC(=O)[C@H](Cc1c[nH]c2ccccc12)NC(=O)[C@H](Cc1c[nH]c2ccccc12)NC(=O)[C@H](Cc1c[nH]c2ccccc12)NC(=O)[C@H](CO)NC(=O)[C@H](Cc1c[nH]c2ccccc12)NC(=O)[C@H](CCCNC(=N)N)NC(=O)[C@@H](N)CCCNC(=N)N)C(N)=O [Peptide S7] (H-RRWSWWWSWRR-NH2)	>64 μ M	2 μ M	4 μ M	>64 μ M	>64 μ M	>64 μ M	>64 μ M	>64 μ M	4 μ M	4 μ M	4 μ M	2 μ M	more than 64 μM	3.17 µM	–
CN(C)[C@@H]1C(O)=C(C(N)=O)C(=O)[C@@]2(O)C(O)=C3C(=O)c4c(O)cccc4[C@@](C)(O)[C@H]3C[C@@H]12 [tetracycline]	–	–	–	–	–	–	–	–	–	–	–	–	–	–	induced rapid resistance acquisition
